Data as given in patent US12616203B2, “Use of 3-isoxazolidinones compounds as selective herbicides” (FMC Corporation, priority 2014, dated 2026).

Assays:
[1] = system: weeds; assay: Ex18 PRE greenhouse; assay type: in vivo; details: weed and rate in the words
Description: (§1) Additional treatments included application of metazachlor (Butisan®, 43.1%) at 750 g ai/ha, napropamide (Devrinol DF®, 50%) at 1260 g ai/ha, and dimethachlor (Teridox®, 48%) at 1000 g ai/ha. […] Treatments were applied just after the seeding of annual bluegrass, cheat, wild oat, quackgrass, field violet, blackgrass, littleseed canarygrass, silky windgrass, yellow foxtail, and goosegrass. […] Flats were watered and fertilized routinely after treatment application. Each treatment was replicated three times.

[2] = system: weeds; Sugarcane (var. CTC 20); assay: Ex17 PRE greenhouse; assay type: in vivo; details: weed and rate in the words
Procedure: (§2) In this example a study was conducted to determine weed efficacy and sugarcane injury when 2,4 DC or isoxaflutole are applied either alone or tank-mix as preemergence against the weeds: Ivyleaf morningglory (Ipomoea hederacea, IPOHE), hairy beggartickss (Bidens pilosa, BIDPI), yellow nutsedge (Cyperus esculentus, CYPES), large crabgrass (Digitaria sanguinalis, DIGSA), and redroot pigweed (Amaranthus retroflexus, AMARE). The crop tested in this study was Sugarcane (var. CTC 20).
(§3) To determine weed efficacy and sugarcane selectivity, 2,4 DC (SC 36%) and isoxaflutole (Balance Flexx®, 20%) were applied PRE either alone or as tank-mix partners at rates mentioned below. 2,4 DC was applied at 500, 750, and 1000 g ai/ha while isoxaflutole was applied at 80, 100, and 120 g ai/ha. […] Treatments were applied PRE to sugarcane (var. CTC 20), ivyleaf morningglory, hairy beggarticks, yellow nutsedge, large crabgrass, and redroot pigweed. Weed species were planted in fiber flats (6″×10″) containing Pennington soil. Soil was watered before application and watered lightly after application. Flats were watered and fertilized routinely after treatment application.

[3] = system: Cheat; assay: Ex18 PRE 2,4-DC + clomazone, % control 28 DAT, Colby; assay type: in vivo, Bromus secalinus
Description: as §1

[4] = system: Wild buckwheat; assay: Ex11 PRE 2,4-DC + clomazone, % control 28 DAT, Colby; assay type: in vivo, Polygonum convolvulus
Description: The crop tested was Oilseed rape.
Additional treatments included applications of metazachlor (Butisan®, 43.1%) at 750 g ai/ha, napropamide (Devrinol DF®, 50%) at 1260 g, and dimethachlor (Teridox®, 48%) at 1000 g. […] Treatments were applied just after the planting of tall morningglory, wild mustard, common lambsquarters, Italian ryegrass, wild buckwheat, redroot pigweed, common chickweed, corn poppy, and oilseed rape.
Flats were watered and fertilized routinely after treatment application. Each treatment was replicated three times.

[5] = system: weeds; Wheat and canola; assay: Ex29 PRE greenhouse; assay type: in vivo; details: 28 DAT
Description: The tested weeds include Italian ryegrass (Lolium perenne. multiflorum, LOLMU), wild mustard (Sinapis arvensis, SINAR), annual bluegrass (Poa annua, POAAN), wild oat (Avena fatua, AVEFA), blackgrass (Alopecurus myosuroides, ALOMY), common lambsquarters (Chenopodium album, CHEAL), littleseed canarygrass (Phalaris minor, PHAMI), common chickweed (Stellaria media, STEME), corn poppy (Papaver rhoeas, PAPRH), redroot pigweed (Amaranthus retroflexus, AMARE), silky windgrass (Apera spica-venti, APSEV), wild buckwheat (Polygonum convolvulus, POLCO). The crops teased were Wheat and canola.
Treatments were applied before the emergence of Italian ryegrass, wild oat, wild buckwheat, blackgrass, littleseed canarygrass, common chickweed, common lambsquarters, corn poppy, silky windgrass, redroot pigweed, wild mustard, annual bluegrass, canola, and wheat. […] Flats were watered and fertilized routinely after treatment application.

[6] = system: weeds; Wheat, barley, and oil seed rape (OSR); assay: Ex19 PRE greenhouse; assay type: in vivo; details: rate in the words
Description: In this study, the crops tested included Wheat, barley, and oil seed rape (OSR).
To determine weed efficacy and wheat, barley or OSR selectivity, 2,4 DC (CS 36.7%) and Diflufenican (CS 19.5%) were applied preemergence either alone or as tank-mix partners at the following rates. 2,4 DC was applied at 125, 170, 210 and 250 g ai/ha while Diflufenican was applied at 50, 75, and 100 g ai/ha. Pyroxasulfone (KIH-485, 85%) at 74.3 g ai/ha, pendimethalin (Prowl 3.3EC, 37.4%) at 1200 g ai/ha, or a premix of chlorsulfuron plus metsulfuron-methyl (Report Extra, 75%) at 15.8 g ai/ha were applied as commercial standards.
Herbicides included as standards for comparison were pyroxasulfone, pendimethalin, and a pre mix of chlorsulfuron plus metsulfuron methyl, all applied at labeled rates as indicated above. Treatments were replicated 3 times. […] Thereafter flats were watered and fertilized routinely.

[7] = system: weeds; assay: Ex13 PRE greenhouse; assay type: in vivo; details: 28 DAT, weed and rate in the words
Description: (§4) Pyroxasulfone (KIH-485, 85%) at 74.3 g ai/ha, pendimethalin (Prowl 3.3EC, 37.4%) at 1200 g ai/ha, or a premix of chlorsulfuron plus metsulfuron-methyl (Report Extra, 75%) at 15.8 g ai/ha were applied as commercial standards. […] Treatments were replicated 3 times and flats were watered after planting before the treatment and lightly watered after treatment application. Thereafter flats were watered and fertilized routinely.

[8] = system: weeds; assay: Ex10 PRE greenhouse; assay type: in vivo; details: 28 DAT, weed and rate in the words
Description: Treatments 1-12 of 2,4-DC and aclonifen tank-mix combinations follow same rates listed above. […] Sulfentrazone (Spartan 4F® 39.6%) at 280 g ai/ha, pendimethalin (Prowl 3.3®EC, 37.4%) at 784 g ai/ha, or S-metolachlor (Dual II Magnum® 82.4%) at 1084 g ai/ha were applied as commercial standards. Treatments were replicated 3 times and flats were watered after planting but before the treatment and lightly watered after treatment application. Thereafter flats were watered and fertilized routinely. […] Shepherd's-purse was rated at 21 and 28 DAT only, due to delayed emergence.

[9] = system: Common cocklebur; assay: Ex37 PRE 2,4-DC + atrazine, % control 28 DAT, Colby; assay type: in vivo, Xanthium strumarium
Description: (§5) S-metolachlor (DUAL II MAGNUM®, 82.4%) at 525 g ai/h plus atrazine at 560 g ai/h was included as a standard for comparison. […] Thereafter flats were watered and fertilized routinely.

[10] = system: Velvetleaf; assay: as above; assay type: in vivo, Abutilon theophrasti; details: PRE
Description: as §5

[11] = system: weeds; Wheat and Barley; assay: Ex14 POST greenhouse; assay type: in vivo; details: 28 DAT, rate in the words
Description: (§6) The study further assessed post crop safety on Wheat and Barley.
(§7) Nonionic surfactant at 0.5% (v/v) was included with commercial standards application. No adjuvant was applied with any other treatments. All plant species were direct seeded into 3″ plastic pots using metro-mix as growth media. At treatment application common lambsquarters was 1.75″, common chickweed was 2″, wild mustard was 2.25″, wild oat was 5.5″, wild buckwheat was 2-5″, Italian ryegrass was 2-3″, wheat was 5.5″, and barley was 4.5″ in height. Plants were watered well before application and not watered 24 h after application. Plants were watered and fertilized routinely after treatment application. Each treatment was replicated four times.

[12] = system: common chickweed; assay: Ex14 POST 2,4-DC + bromoxynil, % control 28 DAT, Colby; assay type: in vivo, Stellaria media
Description: as §6, §7

[13] = system: Common lambsquarters; assay: Ex13 PRE 2,4-DC + diflufenican, % control 28 DAT, Colby; assay type: in vivo, Chenopodium album
Description: as §4

[14] = system: Wild mustard; assay: as above; assay type: in vivo, Sinapis arvensis
Description: as §4

[15] = system: Blackgrass; assay: as above; assay type: in vivo, Alopecurus myosuroides
Description: as §4

[16] = system: Ivyleaf morningglory; assay: Ex17 PRE 2,4 DC + isoxaflutole, % control 28 DAT, Colby; assay type: in vivo, Ipomoea hederacea
Procedure: as §2
as §3, with “Weed species were planted in fiber flats (6″×10″) containing Pennington soil.” left out

[17] = system: weeds; Sugarcane (CTC20); assay: Ex23 PRE greenhouse; details: 28 DAT, 85 g ai/ha
Procedure: (Ipomoea spp). The tested crop in this study was Sugarcane (CTC20).
Sugarcane was direct seeded into 6″ plastic pots using 3-4″ sugarcane setts, oriented bud up, with bud leaf shield removed. 2,4 DC and sulfentrazone were applied alone or combined as tank-mix at each rate mentioned below. […] Treatments were replicated 3 times. […] Thereafter flats were watered and fertilized routinely. […] Visual percent sugarcane injury was recorded at 21 and 28 DAT, using a scale of 0 (no injury, observed as bleaching, stunting or necrosis) to 100 (complete plant death).

With `CC1(C)CON(Cc2ccccc2Cl)C1=O` [Clomazone, clomazone, reference compound] the “weed control in words” value [1] was “controlled goosegrass at all rates and cheat at 120 g”, the “weed control in words” value [2] was “at 1120 g controlled hairy beggarticks, large crabgrass, and redroot pigweed” and the Y ([3]; clomazone alone 60 g ai/ha) was 40%. It also gave a Y ([3]; clomazone alone 90 g ai/ha) of 75%, a Y ([3]; clomazone alone 120 g ai/ha) of 97% and a Y ([4]; clomazone alone 60 g ai/ha) of 70%. For the same compound, the Y ([4]; clomazone alone 90 g ai/ha) was 80% and the Y ([4]; clomazone alone 120 g ai/ha) was 79%.
With `COCCN(C(=O)CCl)c1c(C)cccc1C` [Dimethachlor, dimethachlor] the “weed control in words” value [1] was “controlled annual bluegrass, quackgrass, littleseed canarygrass, silky windgrass, yellow foxtail, and goosegrass”, the injury to canola ([5]; at 100 g) was 18% and the “weed control / crop safety in words” value ([5]; weed, crop, rate in the words) was “alone provided control of lambsquarters at 1000 g ai/ha”.
For `CCC(CC)Nc1c([N+](=O)[O-])cc(C)c(C)c1[N+](=O)[O-]` [Pendimethalin, pendimethalin], the “weed control / crop safety in words” value [6] was “controlled corn poppy and field violet and was safe on barley”, the “weed control in words” value [7] was “at 1200 g gave control of 6 out of 10 weeds” and the “weed control in words” value [8] was “at 784 g gave control of 5 out of 10 weeds”.
`CCNc1nc(Cl)nc(NC(C)C)n1` [Atrazine] gave a Y ([9]; Atrazine alone 140 g ai/ha) of 57%, a Y ([9]; Atrazine alone 280 g ai/ha) of 92% and a Y ([9]; Atrazine alone 560 g ai/ha) of 97%. The “Y (% control, atrazine alone)” value ([10]; atrazine 140 g ai/ha) was 53%, the “Y (% control, atrazine alone)” value ([10]; atrazine 280 g ai/ha) was 63% and the “Y (% control, atrazine alone)” value ([10]; atrazine 560 g ai/ha) was 96%.
In the case of `N#Cc1cc(Br)c(O)c(Br)c1` [Bromoxynil, bromoxynil, reference compound], the “weed control / crop safety in words” value [11] was “alone controlled wild buckwheat, wild mustard, and common lambsquarters at all rates and was safe on both crops at all rates”, the Y ([12]; bromoxynil alone 140 g ai/ha) was 35% and the Y ([12]; bromoxynil alone 210 g ai/ha) was 65%. It also gave a Y ([12]; bromoxynil alone 280 g ai/ha) of 38%.
`O=C(Nc1ccc(F)cc1F)c1cccnc1Oc1cccc(C(F)(F)F)c1` [Diflufenican, diflufenican, reference compound] showed a Y ([13]; diflufenican alone 50 g ai/ha) of 65%, a Y ([13]; diflufenican alone 75 g ai/ha) of 73% and a Y ([13]; diflufenican alone 100 g ai/ha) of 85%. For the same compound, the Y ([14]; diflufenican alone 50 g ai/ha) was 42%, the Y ([14]; diflufenican alone 75 g ai/ha) was 89% and the Y ([14]; diflufenican alone 100 g ai/ha) was 100%. The Y ([15]; diflufenican alone 50 g ai/ha) was 33%, the Y ([15]; diflufenican alone 75 g ai/ha) was 17% and the Y ([15]; diflufenican alone 100 g ai/ha) was 27%. The “weed control in words” value [7] was “controlled common lambsquarters at 100 g only”.
`Nc1c([N+](=O)[O-])ccc(Oc2ccccc2)c1Cl` [Aclonifen, aclonifen] was tested, and the “weed control in words” value [8] was “alone at all three rates controlled common lambsquarters, quackgrass, redroot pigweed, littleseed canarygrass, annual bluegrass, blackgrass, and shepherd's purse”.
Work on `CS(=O)(=O)c1cc(C(F)(F)F)ccc1C(=O)c1cnoc1C1CC1` [Isoxaflutole, isoxaflutole, reference compound] yielded a Y ([16]; isoxaflutole alone 80 g ai/ha) of 69%, a Y ([16]; isoxaflutole alone 100 g ai/ha) of 73% and a Y ([16]; isoxaflutole alone 120 g ai/ha) of 81%. For the same compound, the “weed control in words” value [2] was “alone at 80 g or higher rates controlled hairy beggarticks, large crabgrass, and redroot pigweed” and the sugarcane injury [17] was 12%.
